Results: patent US12116636B2, “Methods for evaluating tumor cell spheroids using 3D microfluidic cell culture device” (Dana-Farber Cancer Institute, Inc., priority 2017, dated 2024)

Experiments:
[1] = system: human CD4+ and CD8+ T cells; assay: IFNγ in supernatant of anti-CD3/anti-CD28 stimulated T cells; type: cell-based; conditions: dose-titration, 96 hours
Method: Freshly isolated human CD4+ and CD8+ T cells were obtained from AllCells (Alameda, CA, USA). Cells were spun down and resuspended in serum free Xvivol5 media (Lonza Walkersville, Inc., Chicago, IL, USA) supplemented with 5 ng/mL […] and incubated overnight at 37° C. Cells were plated on anti-CD3 coated plates (5 μg/mL OKT3, eBioscience™, Dallas, TX, USA, overnight) with 2 μg/mL anti-CD28 (eBioscience™, Dallas, TX, USA). Cells are treated in replicate plates with a dose-titration of Compound 1 for 24 hours for IL-2 and 96 hours for IFNT. IL-2 and IFNγ in the supernatant were measured using single- or multi-plex immunoassay (Mesoscale Discovery, Rockville, MD, USA). Jurkat T cell leukemia cells (clone E61 obtained from ATCC) plated on anti-CD3 coated plates were treated with a dose titration of Compound 1 for 24 hours. IL-2 in the supernatant was measured as described above.

MC38 MDOTS = assay: Live/dead (AO/PI) staining of MDOTS in 3D microfluidic culture; type: cell-based, murine; conditions: Cmpd1 1 μM + αPD-1, 5 days; not significant vs single-agent PD-1
Method: (§1) Fresh tumor specimens (murine and human patients) were received in media (DMEM) on ice and minced in a 10 cm dish (on ice) using sterile forceps and scalpel. Minced tumor was resuspended in DMEM (4.5 mM glucose, […] sodium pyruvate, 1:100 penicillin-streptomycin) (Coming CellGro, Manassas, VA)+10% FBS (Gemini Bio-Products, West Sacramento, CA), 100 U/mL collagenase type IV (Life Technologies, Carlsbad, CA), and 15 mM HEPES (Life Technologies, Carlsbad, CA), except for CT26 tumors that were prepared in RPMI. Samples were pelleted and resuspended in 10-20 mL media. Red blood cells were removed from visibly bloody samples using RBC Lysis Buffer (Boston Bio-Products, Ashland, MA). […]
Dual labeling was performed by loading microfluidic device with Nexcelom ViaStain™ (fluorescent cell viability dye) AO/PI Staining Solution (Nexcelom, CS2-0106). Following incubation with the dyes (20 minutes at room temperature in the dark), images were captured on a Nikon Eclipse 80i fluorescence microscope equipped with Z-stack (Prior) and CoolSNAP CCD camera (Roper Scientific). […] Live and dead cell quantitation was performed by measuring total cell area of each dye. […]

B16F10 MDOTS = assay: Bead-based cytokine profiling of MDOTS conditioned media; type: cell-based, murine; conditions: Cmpd1 1 μM ± αPD-1
Method: as §1
(§2) Two multiplex assays were performed utilizing a bead-based immunoassay approach, the Bio-Plex Pro™ Human Cytokine 40-plex Assay (Cat #171AK99MR2) and Bio-Plex Pro™ Mouse Cytokine Panel 1, 23-plex (Cat #M60009RDPD) on a Bio-plex 200 system (Cat #171000201). […] Fold changes relative to the MDOT/PDOT control were calculated and plotted as log 2FC. Lower and upper limits of quantitation (LLOQ/ULOQ) were imputed from standard curves for cytokines above or below detection. […]

CT26 MDOTS = assay: as above; type: cell-based, murine; conditions: Cmpd1 1 μM ± anti-PD-1 10 μg/mL
Method: as §1, §2

MB49 allograft = assay: In vivo Compound 1 combination treatment, allograft; parameters: species or system B6 mice; conditions: Cmpd1 + αPD-L1

N#Cc1cc(-c2ncnc(Nc3ccc(N4CCN(C5COC5)CC4)cc3)n2)ccc1OC1CCOCC1 [Compound 1, 5-(4-((4-(4-(oxetan-3-yl)piperazin-1-yl)phenyl)amino)-1,3,5-triazin-2-yl)-2-((tetrahydro-2H-pyran-4-yl)oxy)benzonitrile]
secretion of IFN-7 from purified CD4+ and CD8+ T cells [1]: enhanced secretion | ex vivo killing of MC38 MDOTS, combination treatment (MC38 MDOTS): enhanced | G-CSF and related innate immune response cytokines in B16F10 MDOTS (B16F10 MDOTS): without concomitant induction | levels of CCL4, CCL3, and IL-10 in CT26 MDOTS (CT26 MDOTS): Decreased levels | response to combination treatment in vivo, MB49 bladder carcinoma (MB49 allograft): enhanced response
